The subject of test [1] is E. coli WT-RFP/H69-GFP mixed culture, fluorescence, 24 h. The experiment in a line: growth inhibition of wild-type RFP E. coli, dose response, H69 mutant GFP, cherry-pick (AID 977623).
Experiment in test [2]: as above
To be noted: E. coli WT-RFP/H69-GFP mixed culture, fluorescence, 24 h.

The mark [3] stands for this setting: E. coli WT-RFP/H69-GFP mixed culture, 24 h, measured here: total growth OD600.
Where [4] appears, read: measured here: H69 humanized strain GFP growth.

Inconclusive results are not listed. Active and inactive are the calls of the source.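 Rule for the calls: active = red signal of normal-ribosome cells cut twice as much as green signal of humanized-ribosome cells, growth loss under 30%; inactive = the rest, inconclusive results apart.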 A value given as a limit tells only on which side of the number the result lay.

As for `Cc1ccc(C)c(NC(=O)CSc2nc3nc(-c4cccs4)cc(C(F)(F)F)c3c(=O)[nH]2)c1`, the AC50 in test [1] (setting [3]) was determined as 10.3 µM; in test [1] (setting [4]), 12.8 µM. In addition, the activity change, negative = inhibition in test [2] (at 50 µM (top of the series)) is 16.1 (inactive).
For `CCOC(=O)c1c(NC(=O)Cc2cccs2)sc(C)c1C` the same measures were 9.61 µM, 47.4 µM and 24.9 (inactive).
`COc1cc2c(cc1[N+](=O)[O-])-c1ccc([N+](=O)[O-])cc1C2`: the AC50 in test [1] (setting [3]) was 2.76 µM; in test [1] (setting [4]), above 100 µM. In addition, the activity change, negative = inhibition in test [2] (at 26 µM (top of the series)) is 77.3 (inactive).
`COc1ccc(Cn2c(-c3ccc(Cl)cc3)c[n+]3ccccc23)cc1` registered an AC50 in test [1] (setting [3]) of 47.2 µM. In addition, in test [2] (at 50 µM (top of the series)), the activity change, negative = inhibition was 26.5 (inactive).
With `COc1ccc2[nH]c3c(=O)n(CCCCC(=O)NCCC(C)C)c(=S)[nH]c3c2c1`, the activity change, negative = inhibition in test [2] (at 50 µM (top of the series)) was 100 (inactive).
In the case of `O=C(O)c1cc([N+](=O)[O-])ccc1NCc1ccccc1`, the AC50 in test [1] (setting [3]) amounted to 15.2 µM. Besides, in test [2] (at 50 µM (top of the series)), the activity change, negative = inhibition was 3.75 (inactive).
With `COc1ccc(NC(=O)c2ccc(-c3ccc([N+](=O)[O-])cc3)o2)cc1`, the values for the AC50 in test [1], in test [1] (setting [3]) and in test [1] (setting [4]) were > 100 µM (inactive), 5.6 µM and above 100 µM, respectively.
`C[C@@H]1CCCCO[C@H](CN(C)C(=O)CCCN(C)C)[C@H](C)CN([C@@H](C)CO)C(=O)c2cc(NC(=O)Nc3cccc4ccccc34)ccc2O1` yielded an AC50 in test [1] (setting [4]) above 100 µM. Also, in test [2] (at 50 µM (top of the series)), the activity change, negative = inhibition was 102 (inactive).
Molecule `Cc1noc(C)c1NC(=O)Nc1ccc2c(c1)C(=O)N([C@H](C)CO)C[C@@H](C)[C@@H](CN(C)C(=O)Nc1ccc3c(c1)OCO3)OCCCC[C@@H](C)O2` showed an AC50 in test [1] (setting [3]) above 100 µM. Besides, the activity change, negative = inhibition in test [2] (at 50 µM (top of the series)) is 153 (inactive).

In general, AC50 refers to the concentration at which the activity in the assay is half-maximal.

For the origin of these results see PubChem BioAssay AID977623 (Broad Institute, 2014).
